Legend:
[1] = system: Akt; experiment: Induction of Akt activation in keratinocytes (phosphorylation of Ser473); assay type: cell-based; conditions: with PAR-1 inhibitor
Description: Briefly, cells are washed three times with PBS and lysed with lysis buffer (0.15 M NaCl, 0.01 mM PMSF, 1% NP-40, 0.02 M Tris, 6 M urea/H2O). Cell lysates are centrifuged at 10,000 g for 15 minutes and supernatants are separated by 10% sodium-dodecyl-sulphate polyacrylamide-gel electrophoresis (SDS-PAGE) and transferred to a PDVF membrane. The primary antibodies used are as follows against pan or phospho specific forms of Akt, GSK3β, ERK1/2. Immunoreactivity is detected by using the ECL detection system (Amersham Biosciences, Buckinghamshire, UK). Anti-human (3-actin (Sigma-Aldrich) antibody is included to normalize for unequal loading. Protein band intensity is evaluated by densitometry by ImageQuant™ LAS 4000 (GE Healthcare Life Sciences).
To confirm activation of Akt by TR47, Akt-mediated inactivation of GSK3β via phosphorylation at Ser9 is determined. GSK3β is a well-known downstream substrate for Akt.

[2] = system: p-AKT; experiment: p-AKT ELISA in AE.Hy926 cells treated with PAR1 peptide and/or thrombin; assay type: cell-based, human; set-up: pAKT compared to adding thrombin alone: dose or concentration left out as unconfirmed
Description: AE.Hy926 cells (ATCC® CRL-2922′), the human umbilical vein cell line, established by fusing primary human umbilical vein cells with a thioguanine-resistant clone of A549 by exposure to polyethylene glycol (PEG), were cultured in Dulbecco's Modified Eagle's Medium (DMEM, high glucose) containing 10% fetal bovine serum (FBS) in 75 sq cm flasks. When cells reached confluence, they were trypsinzed and seeded into 48 well plates at 1×10^4 viable cells/well for 2 days to reach complete confluency. Before treatment, cells were preincubated with DMEM medium (no FBS) for 2 hrs, then switched to fresh DMEM and treated with: • PAR1 12mer peptide (shown on graphs as PAR1) (or scrambled control (SC) of PAR1 peptide) • thrombin
either alone or at different combinations for 1 hr. After treatment, media were discarded and 100 μl lysis buffer was added to each wells and cell lysates were collected and stored in −40° C. for ELISA.
Human p-GSK and p-AKT were measured using ELISA Dueset kits (R&D Systems) according to manufacturers' instructions.

CC(C)c1ccc(Cn2ccc3c4c(N)nc(NC5CC5)nc4ccc32)cc1 [SCH79797]
dependence of Akt activation on PAR-1 [1]: activation of Akt is dependent on PAR-1

NPNDKYEPFWED (listed as Homo sapiens) [PAR1 peptide, PAR1 12mer peptide]
Akt activity ([2]; PAR1 peptide added 15 mins before or after thrombin, FIG. 8B): enhance the Akt activity
activation of Akt as determined by phosphorylation of Ser473 ([2]; PAR1 peptide, after 1 hour, AE.Hy926 cells): induced robust activation of Akt
pAKT ([2]; higher concentrations, eg 10 nM thrombin in the presence of peptide): significantly enhanced pAKT
pAKT compared to adding thrombin alone ([2]; lower doses of thrombin and PAR1 peptide added together simultaneously, FIG. 8A): increased pAKT

thrombin
phosphorylation of AKT ([2]; thrombin alone at 0.1 and 0.25 nM, FIG. 8A): inhibited phosphorylation of AKT

Reference: patent US20210268062A1, “INFLAMMATORY SKIN DISORDER TREATMENT” (NOVAPEP PTY LTD, priority 2018, published 2021)
